Measured values published in ChEMBL document CHEMBL1201862, “PubChem BioAssay data set” (2004).
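The compound was tested at five concentrations on cells cultured in 96-well plates, with a 48-hour exposure period. Abbreviation: GI50, concentration required for 50% inhibition of growth.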 Activity calls are given as the source filed them. Rule as the data show it: active = GI50 up to about 1.1 µM and inactive = higher.

Assays:
Test in all cases: NCI anticancer screen, dose series, 48 h
BT-549 = test system: BT-549
CCRF-CEM = test system: CCRF-CEM
HCT-116 = test system: HCT-116
HT-29 = test system: HT-29
Hs-578T = test system: Hs-578T
KM12 = test system: KM12
MCF7 = test system: MCF7
MDA-MB-435 = test system: MDA-MB-435
NCI-H226 = test system: NCI-H226
NCI/ADR-RES = test system: NCI/ADR-RES
OVCAR-3 = test system: OVCAR-3
OVCAR-8 = test system: OVCAR-8
SF-539 = test system: SF-539
SK-MEL-28 = test system: SK-MEL-28
SK-MEL-2 = test system: SK-MEL-2
SK-MEL-5 = test system: SK-MEL-5
SN12C = test system: SN12C
SNB-19 = test system: SNB-19
T47D = test system: T47D
UACC-257 = test system: UACC-257

In the case of `CC(C)C1CC(CO)(CNc2nc(N)nc(Cl)c2C=O)C1` (stereo not given), the GI50 (BT-549) is reported as 11.4 µM (inactive), the GI50 (CCRF-CEM) is reported as 2.34 µM (inactive) and the GI50 (HCT-116) is reported as 2.84 µM (inactive). For the same molecule, the GI50 (HT-29) was 2.48 µM (inactive), the GI50 (Hs-578T) was 4.38 µM (inactive) and the GI50 (KM12) was 7.35 µM (inactive). For the same molecule, the GI50 (MCF7) was 10.3 µM (inactive), the GI50 (MDA-MB-435) was 2.23 µM (inactive) and the GI50 (NCI-H226) was 8.95 µM (inactive). The GI50 (NCI/ADR-RES) was 6.03 µM (inactive), the GI50 (OVCAR-3) was 3.47 µM (inactive) and the GI50 (OVCAR-8) was 2.75 µM (inactive). The GI50 (SF-539) was 13.7 µM (inactive), the GI50 (SK-MEL-28) was 1.88 µM (inactive) and the GI50 (SK-MEL-2) was 1.8 µM (inactive). For the same molecule, the GI50 (SK-MEL-5) was 6.89 µM (inactive), the GI50 (SN12C) was 3.75 µM (inactive) and the GI50 (SNB-19) was 6.04 µM (inactive). For the same molecule, the GI50 (T47D) was 6.01 µM (inactive) and the GI50 (UACC-257) was 2.49 µM (inactive).
`CC(=O)CC1(O)C(=O)c2c(Br)sc(Br)c2C1=O` was tested, and the GI50 (BT-549) was 19 µM (inactive), the GI50 (CCRF-CEM) was 15.1 µM (inactive) and the GI50 (HCT-116) was 19.8 µM (inactive). For the same molecule, the GI50 (HT-29) was 21.7 µM (inactive), the GI50 (Hs-578T) was 31.3 µM (inactive) and the GI50 (KM12) was 34.3 µM (inactive). For the same molecule, the GI50 (MCF7) was 30.1 µM (inactive), the GI50 (MDA-MB-435) was 20 µM (inactive) and the GI50 (NCI-H226) was 65.6 µM (inactive). For the same molecule, the GI50 (NCI/ADR-RES) was 36.5 µM (inactive), the GI50 (OVCAR-3) was 16.9 µM (inactive) and the GI50 (OVCAR-8) was 23 µM (inactive). For the same molecule, the GI50 (SF-539) was 23.6 µM (inactive), the GI50 (SK-MEL-28) was 20.7 µM (inactive) and the GI50 (SK-MEL-2) was 22.2 µM (inactive). The GI50 (SK-MEL-5) was 18.4 µM (inactive), the GI50 (SN12C) was 19.4 µM (inactive) and the GI50 (SNB-19) was 55.5 µM (inactive). The GI50 (T47D) was 30.9 µM (inactive) and the GI50 (UACC-257) was 19.6 µM (inactive).
With `NC(=S)NN=Cc1ccccc1OCc1cccc(COc2ccccc2C=NNC(N)=S)n1` the GI50 (BT-549) was 13.6 µM (inactive), the GI50 (CCRF-CEM) was > 100 µM (inactive) and the GI50 (HCT-116) was 32.7 µM (inactive). The GI50 (HT-29) was > 100 µM (inactive), the GI50 (Hs-578T) was 18.1 µM (inactive) and the GI50 (KM12) was > 100 µM (inactive). For the same molecule, the GI50 (MCF7) was > 100 µM (inactive), the GI50 (MDA-MB-435) was > 100 µM (inactive) and the GI50 (NCI-H226) was > 34.4 µM (inactive). For the same molecule, the GI50 (NCI/ADR-RES) was 40.6 µM (inactive), the GI50 (OVCAR-3) was 42.1 µM (inactive) and the GI50 (OVCAR-8) was 6.01 µM (inactive). For the same molecule, the GI50 (SF-539) was 7.93 µM (inactive), the GI50 (SK-MEL-28) was > 100 µM (inactive) and the GI50 (SK-MEL-2) was 6.89 µM (inactive). The GI50 (SK-MEL-5) was > 100 µM (inactive), the GI50 (SN12C) was > 79.3 µM (inactive) and the GI50 (SNB-19) was 9.89 µM (inactive). For the same molecule, the GI50 (T47D) was > 38.2 µM (inactive) and the GI50 (UACC-257) was > 79.8 µM (inactive).
For `C=CCOc1ccc2c(C)cc(=O)oc2c1C`, the GI50 (BT-549) was 32 µM (inactive), the GI50 (CCRF-CEM) was 45.4 µM (inactive) and the GI50 (HCT-116) was 40.5 µM (inactive). For the same molecule, the GI50 (HT-29) was 59.2 µM (inactive), the GI50 (Hs-578T) was 26.9 µM (inactive) and the GI50 (KM12) was 59.7 µM (inactive). The GI50 (MCF7) was 38.5 µM (inactive), the GI50 (MDA-MB-435) was 44.2 µM (inactive) and the GI50 (NCI-H226) was > 100 µM (inactive). The GI50 (NCI/ADR-RES) was 46.8 µM (inactive), the GI50 (OVCAR-3) was > 100 µM (inactive) and the GI50 (OVCAR-8) was 56.8 µM (inactive). The GI50 (SF-539) was 41.2 µM (inactive), the GI50 (SK-MEL-28) was > 100 µM (inactive) and the GI50 (SK-MEL-2) was > 100 µM (inactive). The GI50 (SK-MEL-5) was 32.4 µM (inactive), the GI50 (SN12C) was 98.4 µM (inactive) and the GI50 (SNB-19) was 61.4 µM (inactive). The GI50 (T47D) was 47.9 µM (inactive) and the GI50 (UACC-257) was > 100 µM (inactive).
For `CC(=O)O[C@H]1CC[C@@]2(C)C(=CC[C@@H]3[C@@H]2CC[C@]2(C)C(=N/O)/C(=C\c4ccccc4)C[C@@H]32)C1`, the GI50 (BT-549) was 16.5 µM (inactive), the GI50 (CCRF-CEM) was 17.7 µM (inactive) and the GI50 (HCT-116) was 6.12 µM (inactive). The GI50 (HT-29) was 3.99 µM (inactive), the GI50 (Hs-578T) was 22.5 µM (inactive) and the GI50 (KM12) was 3.2 µM (inactive). For the same molecule, the GI50 (MCF7) was 13 µM (inactive), the GI50 (MDA-MB-435) was 3.89 µM (inactive) and the GI50 (NCI-H226) was 12.5 µM (inactive). For the same molecule, the GI50 (NCI/ADR-RES) was 7.08 µM (inactive), the GI50 (OVCAR-3) was 11.3 µM (inactive) and the GI50 (OVCAR-8) was 9.71 µM (inactive). The GI50 (SF-539) was 15.9 µM (inactive), the GI50 (SK-MEL-28) was 12.7 µM (inactive) and the GI50 (SK-MEL-2) was 13 µM (inactive). For the same molecule, the GI50 (SK-MEL-5) was 2.08 µM (inactive), the GI50 (SN12C) was 14.8 µM (inactive) and the GI50 (SNB-19) was > 55 µM (inactive). The GI50 (T47D) was 7.53 µM (inactive) and the GI50 (UACC-257) was 6.52 µM (inactive).
For `COc1ccc(-c2c(CN3CCOCC3)sc3nc4ccccc4n23)cc1`, the GI50 (BT-549) was > 49.4 µM (inactive), the GI50 (CCRF-CEM) was 0.0435 µM (active) and the GI50 (HCT-116) was 9.84 µM (inactive). For the same molecule, the GI50 (HT-29) was 8.41 µM (inactive), the GI50 (Hs-578T) was 21.6 µM (inactive) and the GI50 (KM12) was 9.48 µM (inactive). For the same molecule, the GI50 (MCF7) was 8.32 µM (inactive), the GI50 (MDA-MB-435) was 2.94 µM (inactive) and the GI50 (NCI-H226) was 42.1 µM (inactive). For the same molecule, the GI50 (NCI/ADR-RES) was 4.92 µM (inactive), the GI50 (OVCAR-3) was 9.86 µM (inactive) and the GI50 (OVCAR-8) was 26.5 µM (inactive). For the same molecule, the GI50 (SF-539) was 16.8 µM (inactive), the GI50 (SK-MEL-28) was 18.6 µM (inactive) and the GI50 (SK-MEL-2) was 30.5 µM (inactive). For the same molecule, the GI50 (SK-MEL-5) was 6.43 µM (inactive), the GI50 (SN12C) was 33.4 µM (inactive) and the GI50 (SNB-19) was 11.5 µM (inactive). The GI50 (T47D) was 18 µM (inactive) and the GI50 (UACC-257) was > 72.1 µM (inactive).
For `O=C(c1cc2ccccc2[nH]1)N1C2CCC1CN(CCOC(c1ccc(F)cc1)c1ccc(F)cc1)CC2` (stereo not given), the GI50 (BT-549) was > 100 µM (inactive), the GI50 (CCRF-CEM) was 6.01 µM (inactive) and the GI50 (HCT-116) was 5.09 µM (inactive). For the same molecule, the GI50 (HT-29) was 23.8 µM (inactive), the GI50 (Hs-578T) was > 100 µM (inactive) and the GI50 (KM12) was 60.3 µM (inactive). The GI50 (MCF7) was 7.06 µM (inactive), the GI50 (MDA-MB-435) was > 100 µM (inactive) and the GI50 (NCI-H226) was 6.9 µM (inactive). The GI50 (NCI/ADR-RES) was > 100 µM (inactive), the GI50 (OVCAR-3) was 9.02 µM (inactive) and the GI50 (OVCAR-8) was > 100 µM (inactive). For the same molecule, the GI50 (SF-539) was 19.1 µM (inactive), the GI50 (SK-MEL-28) was > 100 µM (inactive) and the GI50 (SK-MEL-2) was 81.8 µM (inactive). For the same molecule, the GI50 (SK-MEL-5) was 5.77 µM (inactive), the GI50 (SN12C) was 18.2 µM (inactive) and the GI50 (SNB-19) was > 100 µM (inactive). For the same molecule, the GI50 (T47D) was 5.28 µM (inactive) and the GI50 (UACC-257) was 12.5 µM (inactive).
